Results reported in PMC9364673 (Bioorganic Chemistry, 2022).
Where two headings read alike, the source gives them in different places.

Legend:
[1] = Antioxidant activity, DPPH scavenging method; conditions: read-out: IC50 (DPPH scavenging); DPPH 100 μM, 30 min, mean ± SD
RAW264.7 cells = assay: MTT cell viability assay on RAW264.7 macrophages; assay type: cell-based, murine; conditions: Mus musculus, RAW264.7, 24 h, read-out: IC50 (RAW264.7 cells viability)
type 2 diabetic rats = assay: In vivo antidiabetic effect of a single dose on OGTT in type 2 diabetic; set-up: species or system male Wistar albino rats; conditions: oral doses equivalent to 10 mg/kg, NA: Not active
DPP-4 enzyme = DPP-4 enzyme (Homo sapiens, UniProt P27487); assay: biochemical
DPP-4 enzyme, sequence (P27487 whole entry): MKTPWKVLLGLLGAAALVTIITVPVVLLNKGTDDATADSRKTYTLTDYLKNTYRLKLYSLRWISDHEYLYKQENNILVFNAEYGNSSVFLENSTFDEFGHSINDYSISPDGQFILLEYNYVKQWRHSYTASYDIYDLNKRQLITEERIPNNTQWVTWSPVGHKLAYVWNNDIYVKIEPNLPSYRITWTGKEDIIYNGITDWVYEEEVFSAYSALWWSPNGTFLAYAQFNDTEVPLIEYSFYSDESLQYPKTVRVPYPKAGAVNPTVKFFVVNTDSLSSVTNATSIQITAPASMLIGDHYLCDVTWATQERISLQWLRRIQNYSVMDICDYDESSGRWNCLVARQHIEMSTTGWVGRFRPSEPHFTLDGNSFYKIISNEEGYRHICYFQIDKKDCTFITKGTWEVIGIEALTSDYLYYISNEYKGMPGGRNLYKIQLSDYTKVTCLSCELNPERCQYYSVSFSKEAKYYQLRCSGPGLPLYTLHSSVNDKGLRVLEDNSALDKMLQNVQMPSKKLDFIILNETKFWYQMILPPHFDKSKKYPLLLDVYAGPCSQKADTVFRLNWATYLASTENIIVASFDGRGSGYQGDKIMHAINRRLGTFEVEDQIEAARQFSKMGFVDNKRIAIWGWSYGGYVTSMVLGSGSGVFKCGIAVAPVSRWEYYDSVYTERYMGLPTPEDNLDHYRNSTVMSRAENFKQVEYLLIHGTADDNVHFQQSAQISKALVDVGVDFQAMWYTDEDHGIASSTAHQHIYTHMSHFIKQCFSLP

normal rats = assay: In vivo screening of antihyperglycemic effect, oral tolerance test; set-up: species or system male Wistar albino rats; conditions: OGTT, oral administration, NA: Not active
IL-6 = assay: ELISA of IL-6 release by LPS-stimulated RAW264.7 macrophages; assay type: cell-based, murine; conditions: LPS (1 μg/mL) stimulated RAW264.7, compound at ¼ IC50, ELISA, compared to LPS
CRP = assay: ELISA of CRP release by LPS-stimulated RAW264.7 macrophages; assay type: cell-based, murine; conditions: LPS (1 μg/mL) stimulated RAW264.7, compound at ¼ IC50, ELISA, compared to LPS

Cc1ccc(NC(=S)NS(=O)(=O)C2=CNC3SC(=O)CN3C2=O)cc1 (stereo not shown) [Compound 4b, 3-(4-Methylphenyl)-1-[(2,5-dioxo-8,8a-dihydro-3H-thiazolo[3,2-a]pyrimidin-6-yl)sulfonyl]-thiourea]
IC50 [1]: 65.9 ± 3.4 µM
IC50 (RAW264.7 cells): 241 ± 69.2 µM
% Reduction in BGL compared to control (type 2 diabetic rats): 36.59%
IC50 (DPP-4 enzyme): 0.063 ± 0.003 µM

Cc1ccc(NC(=S)NS(=O)(=O)c2cnc(NN)[nH]c2=O)cc1 [Compound 6b, 1-[(2-Hydrazino-6-oxo-1H-pyrimidin-5-yl)sulfonyl]-3-(4-methylphenyl)-thiourea]
IC50 [1]: 123 ± 6.3 µM
IC50 (RAW264.7 cells): 189 ± 26 µM
% Reduction in BGL compared to control (type 2 diabetic rats): 41.00%
IC50 (DPP-4 enzyme): 0.071 ± 0.004 µM

O=C(O)CSc1ncc(S(=O)(=O)NC(=O)Nc2ccccc2)c(=O)[nH]1 [Compound 5c, 2-[[6-Oxo-5-(phenylcarbamoylsulfamoyl)-1H-pyrimidin-2-yl]sulfanyl]acetic acid]
IC50 (DPP-4 enzyme): 0.29 ± 0.018 µM

O=C(O)CSc1ncc(S(=O)(=O)NC(=S)Nc2ccccc2)c(=O)[nH]1 [Compound 5a, 2-[[6-Oxo-5-(phenylcarbamothioylsulfamoyl)-1H-pyrimidin-2-yl]sulfanyl]acetic acid]
IC50 (DPP-4 enzyme): 0.577 ± 0.028 µM

O=c1c(S(=O)(=O)NC(=S)Nc2ccccc2)cnc2[nH]ncn12 [Compound 7a, 1-[(5-oxo-1H-[1], [2], [4]triazolo[4,3-a]pyrimidin-6-yl)sulfonyl]-3-phenyl-thiourea]
% Reduction in BGL compared to control (normal rats): 17.55%
IC50 (DPP-4 enzyme; read-out: DPP-4 IC50, in vitro, 0.01 to 10 µM, mean ± SD): 0.153 ± 0.008 µM

NNc1ncc(S(=O)(=O)NC(=S)Nc2ccccc2)c(=O)[nH]1 [Compound 6a, 1-[(2-Hydrazino-6-oxo-1H-pyrimidin-5-yl)sulfonyl]-3-phenyl-thiourea]
decrease in IL-6 levels (IL-6): about 85.9%
reduction of the release of CRP (CRP): about 75.5%
IC50 [1]: 139 ± 7.1 µM
IC50 (RAW264.7 cells): 175 ± 24.7 µM
% Reduction in BGL compared to control (normal rats): 17.70%
% Reduction in BGL compared to control (type 2 diabetic rats): 23.24%
IC50 (DPP-4 enzyme): 0.047 ± 0.002 µM

Cc1c(C)c2c(c(C)c1O)CCC(C)(C(=O)O)O2 (stereo not shown) [Trolox, reference compound]
IC50 [1]: 55.2 ± 2.8 µM

Cc1ccc(NC(=S)NS(=O)(=O)c2cnc(N/N=C/c3ccccc3)[nH]c2=O)cc1 [Compound 8b, 1-[[2-[(2E)-2-benzylidenehydrazino]-6-oxo-1H-pyrimidin-5-yl]sulfonyl]-3-(4-methylphenyl)-thiourea]
decrease in IL-6 levels (IL-6): ~80.2%
reduction of the release of CRP (CRP): ~82.6%
IC50 [1]: 60.8 ± 3.1 µM
IC50 (RAW264.7 cells): 155 ± 24.2 µM
% Reduction in BGL compared to control (type 2 diabetic rats): 23.94%
IC50 (DPP-4 enzyme): 0.075 ± 0.003 µM

Cc1ccc(NC(=S)NS(=O)(=O)c2cnc(SCC(=O)O)[nH]c2=O)cc1 [Compound 5b, 2-[[5-(4-Methylphenylcarbamothioylsulfamoyl)-6-oxo-1H-pyrimidin-2-yl]sulfanyl]acetic acid]
% Reduction in BGL compared to control (normal rats): 15.89%
IC50 (DPP-4 enzyme): 0.634 ± 0.031 µM

O=C(Nc1ccccc1)NS(=O)(=O)C1=CNC2SC(=O)CN2C1=O (stereo not shown) [Compound 4c, 1-[(2,5-Dioxo-8,8a-dihydro-3H-thiazolo[3,2-a]pyrimidin-6-yl)sulfonyl]-3-phenyl-urea]
IC50 (DPP-4 enzyme): 0.418 ± 0.02 µM

O=c1[nH]c(N/N=C/c2ccccc2)ncc1S(=O)(=O)NC(=S)Nc1ccccc1 [Compound 8a, 1-[[2-[(2E)-2-benzylidenehydrazino]-6-oxo-1H-pyrimidin-5-yl]sulfonyl]-3-phenyl-thiourea]
% Reduction in BGL compared to control (normal rats): 16.88%
IC50 (DPP-4 enzyme): 0.104 ± 0.005 µM

O=C(Nc1ccccc1)NS(=O)(=O)c1cnc(N/N=C/c2ccccc2)[nH]c1=O [Compound 8c, 1-[[2-[(2E)-2-benzylidenehydrazino]-6-oxo-1H-pyrimidin-5-yl]sulfonyl]-3-phenyl-urea]
IC50 (DPP-4 enzyme): 0.468 ± 0.023 µM

Cc1ccc(NC(=O)NS(=O)(=O)C2=CNC3SC(=O)CN3C2=O)cc1 (stereo not shown) [Compound 4d, 3-(4-Methylphenyl)-1-[(2,5-dioxo-8,8a-dihydro-3H-thiazolo[3,2-a]pyrimidin-6-yl)sulfonyl]-urea]
IC50 (DPP-4 enzyme): 1.32 ± 0.065 µM

CC#CCn1c(N2CCC[C@@H](N)C2)nc2c1c(=O)n(Cc1nc(C)c3ccccc3n1)c(=O)n2C [Linagliptin, linagliptin, reference compound]
% Reduction in BGL compared to control (type 2 diabetic rats): 36.42%

NNc1ncc(S(=O)(=O)NC(=O)Nc2ccccc2)c(=O)[nH]1 [Compound 6c, 1-[(2-Hydrazino-6-oxo-1H-pyrimidin-5-yl)sulfonyl]-3-phenyl-urea]
% Reduction in BGL compared to control (normal rats): 17.36%
IC50 (DPP-4 enzyme): 0.264 ± 0.013 µM

Cc1ccc(S(=O)(=O)NC(=O)NN2CC3CCCC3C2)cc1 (stereo not shown) [Diamicron, reference compound]
% Reduction in BGL compared to control (normal rats): 15.86%
